The values below come from ChEMBL document CHEMBL6134781, “In vitro identification of oridonin hybrids as potential anti-TNBC agents inducing cell cycle arrest and apoptosis by regulation of p21, γH2AX and cleaved PARP” (RSC Med Chem, 2024).

For one series, the system named is HCC1806. Nature of the series: Cytotoxicity against human HCC1806 cells assessed as inhibition of cell viability incubated for 72 hrs by SRB assay. Type of series: functional, cell-based. As to conditions: HCC1806, 72 h. Background: In SRB staining, fixed cells bind dye roughly in proportion to their protein.
The next series has as its system MDA-MB-231. Nature of the series: Cytotoxicity against human MDA-MB-231 cells assessed as inhibition of cell viability incubated for 72 hrs by SRB assay. Type of series: functional, cell-based. As to conditions: MDA-MB-231, 72 h.
Series [1] is described as follows: Stability in human plasma assessed as half life at 100 uM by LC-MS/MS analysis. Type of series: ADME, cell-free.

The IC50 is the concentration at which inhibition is half-maximal. As for `C=C1C(=O)[C@@]23C(=O)[C@@H]4OC[C@]5([C@@H](OC(C)=O)CCC(C)(C)[C@@H]45)[C@@H]2CC[C@@H]1[C@H]3OC(=O)C12CC3CC(CC(C3)C1)C2`, the IC50 with HCC1806 worked out at 2390 nM; in the series on MDA-MB-231 it was 1410 nM.
The corresponding values for `C=C1C(=O)[C@@]23C(=O)[C@@H]4OC[C@]5(C(=O)CCC(C)(C)[C@@H]45)[C@@H]2CC[C@@H]1[C@H]3OC(=O)Cc1ccc(OC)cc1` are 4600 nM and 3060 nM.
The corresponding values for `C=C1C(=O)[C@]23[C@H](OC(=O)Cc4ccc(OC)c(OC)c4)[C@H]1CC[C@H]2[C@]12C=CCC(C)(C)[C@H]1[C@H](O)[C@@]3(O)OC2` are more than 10000 nM and more than 10000 nM.
In the same order, the values of `C=C1C(=O)[C@@]23C(=O)[C@@H]4OC[C@@]5([C@H]4C(C)(C)CC[C@@H]5O)[C@@H]2CC[C@@H]1[C@H]3OC(=O)c1ccc(N(CCCl)CCCl)cc1` are 1610 nM and 1830 nM.
With `C=C1C(=O)[C@]23[C@H](OC(=O)c4ccc(N(CCCl)CCCl)cc4)[C@H]1CC[C@H]2[C@@]12CO[C@]3(O)[C@@H](O)[C@@H]1C(C)(C)CCC2=O`, the values for the IC50 in the series on HCC1806 and in the series on MDA-MB-231 were 3640 nM and 1720 nM, respectively.
Turning to `C=C1C(=O)[C@@]23C(=O)[C@@H]4OC[C@]5(C(=O)CCC(C)(C)[C@@H]45)[C@@H]2CC[C@@H]1[C@H]3OC(=O)C12CC3CC(CC(C3)C1)C2`, the IC50 with HCC1806 was determined as 5590 nM; in the series on MDA-MB-231, 3260 nM.
In the same order, the values of `C=C1C(=O)[C@@]23C(=O)[C@@H]4OC[C@]5(C=CCC(C)(C)[C@@H]45)[C@@H]2CC[C@@H]1[C@H]3OC(=O)C12CC3CC(CC(C3)C1)C2` are 5510 nM and 3660 nM.
The corresponding values for `C=C1C(=O)[C@]23[C@H](OC(=O)Cc4cc(OC)c(OC)c(OC)c4)[C@H]1CC[C@H]2[C@@]12CO[C@]3(O)[C@@H](O)[C@@H]1C(C)(C)CCC2=O` are more than 10000 nM and more than 10000 nM.
`C=C1C(=O)[C@@]23C(=O)[C@@H]4OC[C@]5(C(=O)CCC(C)(C)[C@@H]45)[C@@H]2CC[C@@H]1[C@H]3OC(=O)Cc1ccc(OC)c(OC)c1`: the values for the half-maximal inhibitory concentration (IC50) with HCC1806 and with MDA-MB-231 were 2580 nM and 1810 nM, respectively.
In the same order, the values of `C=C1C(=O)[C@]23[C@H](OC(=O)C45CC6CC(CC(C6)C4)C5)[C@H]1CC[C@H]2[C@@]12CO[C@]3(O)[C@@H](O)[C@@H]1C(C)(C)CCC2=O` are 1910 nM and 1430 nM.
In the case of `C=C1C(=O)[C@]23[C@H](OC(=O)Cc4ccccc4Br)[C@H]1CC[C@H]2[C@@]12CO[C@]3(O)[C@@H](O)[C@@H]1C(C)(C)CCC2=O`, the IC50 with HCC1806 came out at 7120 nM; in the series on MDA-MB-231, 3580 nM.
In the same order, the values of `C=C1C(=O)[C@]23[C@H](OC(=O)Cc4ccc(N(CCCl)CCCl)cc4)[C@H]1CC[C@H]2[C@@]12CO[C@]3(O)[C@@H](O)[C@@H]1C(C)(C)CCC2=O` are more than 10000 nM and 7290 nM.
Regarding `C=C1C(=O)[C@]23[C@H](OC(=O)/C=C/c4ccc(N(C)C)cc4)[C@H]1CC[C@H]2[C@@]12CO[C@]3(O)[C@@H](O)[C@@H]1C(C)(C)CCC2=O`, the IC50 worked out at 2770 nM with HCC1806 and 1790 nM in the series on MDA-MB-231.
The corresponding values for `C=C1C(=O)[C@@]23C(=O)[C@@H]4OC[C@]5(C=CCC(C)(C)[C@@H]45)[C@@H]2CC[C@@H]1[C@H]3OC(=O)c1ccc(N(CCCl)CCCl)cc1` are 3020 nM and 2210 nM.
The corresponding values for `C=C1C(=O)[C@]23[C@H](OC(=O)Cc4ccc(OC)c(OC)c4)[C@H]1CC[C@H]2[C@@]12CO[C@]3(O)[C@@H](O)[C@@H]1C(C)(C)CCC2=O` are more than 10000 nM and 8430 nM.
In the same order, the values of `C=C1C(=O)[C@]23[C@H](OC(=O)c4ccc(N(CCCl)CCCl)cc4)[C@H]1CC[C@H]2[C@]12C=CCC(C)(C)[C@H]1[C@H](O)[C@@]3(O)OC2` are 1400 nM and 1090 nM.
As to `C=C1C(=O)[C@@]23C(=O)[C@@H]4OC[C@@]5([C@H]4C(C)(C)CC[C@@H]5O)[C@@H]2CC[C@@H]1[C@H]3OC(=O)C12CC3CC(CC(C3)C1)C2`, the half-inhibitory concentration (IC50) in the series on HCC1806 was found to be 2130 nM; with MDA-MB-231 it was 1500 nM.
In the same order, the values of `C=C1C(=O)[C@]23[C@H](O)[C@H]1CC[C@H]2[C@@]12CO[C@]3(O)[C@@H](O)[C@@H]1C(C)(C)CCC2=O` are 3560 nM and 2070 nM.
In the same order, the values of `C=C1C(=O)[C@]23[C@H](OC(=O)C45CC6CC(CC(C6)C4)C5)[C@H]1CC[C@H]2[C@@]12CO[C@]3(O)[C@@H](O)[C@@H]1C(C)(C)CC[C@@H]2OC(C)=O` are 1480 nM and 550 nM.
The corresponding values for `C=C1C(=O)[C@@]23C(=O)[C@@H]4OC[C@]5(C(=O)CCC(C)(C)[C@@H]45)[C@@H]2CC[C@@H]1[C@H]3OC(=O)Cc1cc(OC)c(OC)c(OC)c1` are 5070 nM and 2600 nM.
As to `C=C1C(=O)[C@@]23C(=O)[C@@H]4OC[C@]5(C(=O)CCC(C)(C)[C@@H]45)[C@@H]2CC[C@@H]1[C@H]3OC(=O)c1ccc(N(CCCl)CCCl)cc1`, the IC50 in the series with HCC1806 was more than 10000 nM; in the series with MDA-MB-231, 5700 nM.
In the same order, the values of `C=C1C(=O)[C@@]23C(=O)[C@@H]4OC[C@]5(C=CCC(C)(C)[C@@H]45)[C@@H]2CC[C@@H]1[C@H]3O` are 4010 nM and 2780 nM.
The corresponding values for `C=C1C(=O)[C@@]23C(=O)[C@@H]4OC[C@]5(C=CCC(C)(C)[C@@H]45)[C@@H]2CC[C@@H]1[C@H]3OC(=O)Cc1cc(OC)c(OC)c(OC)c1` are 5540 nM and 3820 nM.
Take `C=C1C(=O)[C@@]23C(=O)[C@@H]4OC[C@]5(C(=O)CCC(C)(C)[C@@H]45)[C@@H]2CC[C@@H]1[C@H]3OC(=O)Cc1ccc(N(CCCl)CCCl)cc1`: the results for the IC50 with HCC1806 and with MDA-MB-231 were more than 10000 nM and 11400 nM, respectively.
The corresponding values for `C=C1C(=O)[C@@]23C(=O)[C@@H]4OC[C@]5(C(=O)CCC(C)(C)[C@@H]45)[C@@H]2CC[C@@H]1[C@H]3OC(=O)Cc1ccccc1Br` are more than 10000 nM and more than 10000 nM.
The corresponding values for `C=C1C(=O)[C@]23[C@H](OC(=O)Cc4cc(OC)c(OC)c(OC)c4)[C@H]1CC[C@H]2[C@]12C=CCC(C)(C)[C@H]1[C@H](O)[C@@]3(O)OC2` are more than 10000 nM and more than 10000 nM.
In the same order, the values of `C=C1C(=O)[C@]23[C@H](OC(=O)Cc4ccc(OC)cc4)[C@H]1CC[C@H]2[C@@]12CO[C@]3(O)[C@@H](O)[C@@H]1C(C)(C)CCC2=O` are more than 10000 nM and more than 10000 nM.
One may read the half-life as how long it takes for the measured level to halve. For `C=C1C(=O)[C@]23[C@H](O)[C@H]1CC[C@H]2[C@@]12CO[C@]3(O)[C@@H](O)[C@@H]1C(C)(C)CC[C@@H]2O` [ORIDONIN], the IC50 was determined as 12600 nM in the series on HCC1806 and 5310 nM in the series on MDA-MB-231. For the same molecule, in series [1], the half-life at 100 µM was found to be 1.45 h.
For the molecule `C=C1C(=O)[C@]23[C@H](OC(=O)C45CC6CC(CC(C6)C4)C5)[C@H]1CC[C@H]2[C@]12C=CCC(C)(C)[C@H]1[C@H](O)[C@@]3(O)OC2`, the results for the half-maximal inhibitory concentration (IC50) with HCC1806 and in the series with MDA-MB-231 were 2610 nM and 2420 nM, respectively.
In the same order, the values of `C=C1C(=O)[C@]23[C@H](O)[C@H]1CC[C@H]2[C@@]12CO[C@@]3(O)[C@@H](O)[C@@H]1C(C)(C)CC[C@@H]2OC(C)=O` are 2680 nM and 2490 nM.
The corresponding values for `C=C1C(=O)[C@]23[C@H](O)[C@H]1CC[C@H]2[C@]12C=CCC(C)(C)[C@H]1[C@H](O)[C@@]3(O)OC2` are 910 nM and 870 nM.
Consider `C=C1C(=O)[C@]23[C@H](OC(=O)c4ccc(N(CCCl)CCCl)cc4)[C@H]1CC[C@H]2[C@@]12CO[C@]3(O)[C@@H](O)[C@@H]1C(C)(C)CC[C@@H]2O`, for which the half-maximal inhibitory concentration (IC50) in the series with HCC1806 stood at 1320 nM; with MDA-MB-231 it was 1670 nM.
In the same order, the values of `C=C1C(=O)[C@]23[C@H](OC(=O)Cc4ccc(OC)cc4)[C@H]1CC[C@H]2[C@]12C=CCC(C)(C)[C@H]1[C@H](O)[C@@]3(O)OC2` are more than 10000 nM and more than 10000 nM.
